# According to patent publication US20160199497A1, “Cholesterol Ester-Depleting Nanomedicine for Non-toxic Cancer Chemotherapy” (Purdue Research Foundation, priority 2014, published 2016):
# pIC50: −log10 of the molar value.
# How the values were obtained:
# pancreatic cancer cells [1] = assay: CE level in pancreatic cancer cells (Raman spectromicroscopy, ESI-MS); assay type: cell-based, human
# Method: Label-free Raman spectromicroscopy, including stimulated Raman scattering (SRS) microscopy, coherent anti-stokes Raman scattering (CARS) microscopy and spontaneous Raman spectroscopy, was performed on unstained tissue slices (˜15 μm) or cells without any processing or labeling. SRS imaging was conducted using a femtosecond laser source, with the laser beating frequency tuned to the C-H stretching vibration mode at 2845 cm−1. The typical acquisition time for a 512×512 pixel image was 1.12 second.
# CARS imaging and confocal Raman spectral analysis from individual LDs were performed on a single platform as described previously (40). A 5-picosecond laser at 707 nm was used as excitation beam for Raman spectral acquisition. Acquisition time for a typical spectra from individual LDs was 20 s, with the beam power maintained around 15 mW at sample. For each specimen, at least 10 spectra from individual LDs in different locations or cells were obtained.
# LD amount was quantified based on the SRS images using software ImageJ. […] Area fraction of LDs out of total area of tissues or cells were measured to quantize the LD amount. […] The percentage of CE out of total lipids was used to quantize the CE level.
# Lipids were extracted as described above. Cells with indicated treatments were collected and counted. […]
# tumors = assay: Combination of avasimibe and gemcitabine in mice with tumors; assay type: in vivo; conditions: molar ratio about 5:1 to about 15:1 avasimibe to gemcitabine
# MIA PaCa-2 cells = assay: Annexin V/propidium iodide staining and cell cycle analysis by flow cytometry; assay type: cell-based, human
# PANC-1 = assay: MTT cell viability, PANC-1; assay type: cell-based, human
# Method: (§1) Cell viability was measured by Thiazolyl Blue Tetrazolium Blue (MTT) colorimetric assay (Sigma). Cell migration and invasion assays were performed in Transwell chambers (Corning) coated with and without Matrigel (BD Bioscience) respectively. 20% FBS and 0.2 ng/ml EGF were used as chemoattractant. 12 h (migration) or 24 h (invasion) after cells were seeded on top of the membrane, penetrating cells were stained with PI and counted under confocal microscope.
# [2] = tested on: GRP78, ATF4, CHOP in pancreatic cancer cells; assay: Immunoblotting of ER stress markers; assay type: cell-based, human; conditions: time course
# Method: After indicated treatments, cells were harvested and lysed in AMI lysis buffer (Active Motif) supplemented with protease and phosphatase inhibitor cocktail. Protein concentration was determined using the Bio-Rad protein assay kit. Protein extraction was subjected to immunoblotting with the antibodies against PTEN (Cell Signaling, […]), HMG CoA reductase (Biovision, 3952-100), ACAT-1 (Santa Cruz, sc-69836), GRP78 (Santa Cruz, sc-13968), ATF4 (Cell Signaling, 11815), CHOP (Cell Signaling, 2895), p-ERK1/2 (Cell Signaling, 4370S), ERK1/2 (Cell Signaling, 9102), p-Akt (Cell Signaling, […]), Akt (Cell Signaling, 4691), caveolin-1 (Cell Signaling, […]), SREBP-1 (Santa Cruz, 13551), and β-actin (Sigma, A5441). β-Actin was used as loading control for normalization.
# PC3 cells = assay: Cell viability IC50 in PC3 cells; assay type: cell-based; conditions: Homo sapiens, PC-3
# HPDE6 = assay: MTT cell viability, HPDE6; assay type: cell-based; conditions: Homo sapiens; normal cells
# Method: as §1
# pancreatic cancer cells [3] = assay: Biochemical assay of free cholesterol in cells; assay type: cell-based, human; conditions: low to high concentration
# Method: Lipid extraction from cell pellets and tissues was performed according to Folch et al (Folch J et al. (1957) J Biol Chem 226(1):497-509.). Cells with indicated treatments were collected and counted. CE and free cholesterol were measured according to the manufacturer's protocol (Amplex Red Cholesterol kit from Molecular Probes), and finally normalized by cell number.
# [4] = tested on: MIA PaCa-2 orthotopic tumors; assay: Orthotopic mouse model of pancreatic cancer (MIA PaCa-2 luc/mCherry); assay type: in vivo
# Method: In vivo study in orthotopic mouse model: All animal experiments were conducted following protocols approved by Purdue Animal Care and Use Committee (PACUC). NOD/scid/IL2R γ null (NSG) mice were purchased from In Vivo Therapeutics Core at Indiana University Simon Cancer Center (Indiana University, IN) under a Material Transfer Agreement with Jackson Laboratories, Inc. Orthotopic mouse model of pancreatic cancer was established following previously described protocol (Gu D, et al. (2013) Mol Cancer Ther 12(6):1038-1048.). MIA PaCa-2 cells with stable expression of luciferase and mCherry were collected and suspended at a concentration of 10×10^6 cells/ml. A total of 5×10^5 tumor cells in 50 μl medium was directly injected into the pancreas of NSG mice at 4-6 weeks old. After recovery from surgery, tumor growth was monitored by bioluminescent imaging using In Vivo Imaging System (IVIS).
# In these studies, mice were randomly divided into two groups. For the treatment with avasimibe at 15 mg/kg, intraperitoneal (IP) injection was used on a daily base, starting one week after tumor cell implantation. After treated for 4 weeks, all the mice were sacrificed. Tumors and metastatic lesions in abdominal cavity, lymph nodes, liver, spleen, kidney, lung and heat were visualized with IVIS by mCherry fluorescent signal. Tumor volume and weight were measured ex vivo. Histological examination was performed to tumor and organ tissue slides after stained with Hematoxylin and eosin (H&E).
# Murine paraffin-embedded slides were deparaffinized and rehydrated. Then antigens were retrieved in antigen unmasking solution (Vector Laboratories) with a 2100-Retriever (PickCell Laboratories). Samples were used to TUNEL assay (Roche, 11684817910) according to manufacturer's protocol. Fluorescent images were taken using Nikon A1R confocal microscopy under 40× objective.
# MIA PaCa-2 cell = assay: Transwell cell migration and invasion assays; assay type: cell-based, human
# Method: as §1
# [5] = target: HSA (human serum albumin) (Homo sapiens, UniProt P02768); assay: Avasimibe binding to HSA: circular dichroism, Trp-214 fluorescence quenching, warfarin competitive binding
# Sequence of HSA (human serum albumin) (P02768 25-609): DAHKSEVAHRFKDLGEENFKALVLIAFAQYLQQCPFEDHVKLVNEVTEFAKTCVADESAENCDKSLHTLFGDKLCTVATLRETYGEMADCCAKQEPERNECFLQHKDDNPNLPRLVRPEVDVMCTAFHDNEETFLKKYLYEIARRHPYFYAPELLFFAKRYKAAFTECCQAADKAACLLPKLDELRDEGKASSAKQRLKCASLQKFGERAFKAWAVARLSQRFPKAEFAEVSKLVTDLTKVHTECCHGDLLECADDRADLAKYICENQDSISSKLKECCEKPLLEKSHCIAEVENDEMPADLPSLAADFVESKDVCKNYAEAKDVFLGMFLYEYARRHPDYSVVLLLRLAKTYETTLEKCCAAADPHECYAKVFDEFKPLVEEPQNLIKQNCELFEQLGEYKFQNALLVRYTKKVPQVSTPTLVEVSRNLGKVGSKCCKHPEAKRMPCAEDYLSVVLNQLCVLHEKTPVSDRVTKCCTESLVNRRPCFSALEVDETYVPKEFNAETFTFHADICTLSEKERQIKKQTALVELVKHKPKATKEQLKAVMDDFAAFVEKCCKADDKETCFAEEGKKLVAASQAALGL
# From the text: A quartz cell of 1 mm path length was used for spectrum measurement (190-260 nm). The spectra were collected with a data pitch of 1 nm, a scan speed of 10 nm per minute, and bandwidth of 1 nm. Each spectrum was the average of three scans.
# MIA PaCa-2 = assay: MTT cell viability, MIA PaCa-2; assay type: cell-based, human
# Method: as §1
# [6] = Blood bioavailability / pharmacokinetics of avasimibe by LC-MS; assay type: in vivo, nude mice; conditions: nude, mouse, whole blood; oral avasimibe 15 mg/kg; read-out: area under curve (AUC) of avasimibe
# Method: To compare the blood-bioavailability of avasimibe for oral and intravenous administrations, avasimibe solution in PBS (15 mg/kg) was orally administered to nude mice without tumors (n=3) using a plastic feeding tube (20 GA×38 mm). Avasimin solution in PBS (75 mg/kg, containing 15 mg/kg avasimibe) was intravenously administered to nude mice without tumor (n=3) through the tail vein. Blood samples (2 μl) were collected from the dorsal pedal vein at different time points post administration. […] To extract avasimibe, acetone (6 μl) was added to the blood solution, vortexed, and then the solution was centrifuged (×5000 g, 5 min). The supernatant (6 μl) was collected and dried under vacuum. The sample was stored at −20° C., and dissolved in 50 μl of methanol just before analysis. A linear standard curve of avasimibe in blood ranging of 0.01-100 μg/ml was created using the same extraction method described above. avasimibe concentration was determined using a liquid chromatography-mass spectroscopy (LC-MS) (Agilent 1200 HPLC-Agilent 6460 QQQ mass spec). […]
# Based on this model, pharmacokinetic values for avasimibe delivered by intravenous administration of avasimin were determined including the initial volume of distribution, […]
# The terminal and distribution half-times for two-compartment model were measured using the equations above, described in a previous report.
# pancreatic cancer cells [7] = assay: Fluorescence imaging of DiI labeled LDL uptake; assay type: cell-based, human
# Method: DiI labeled LDL was made following previously described method (de Smidt P C & van Berkel T J C (1990) Cancer Res 50(23):7476-7482.). Cells were cultured in medium containing 10% lipodeficient serum with or without avasimibe treatment for 2 days. Then DiI-LDL was added to the medium at 50 μg/ml for 3 hours. Fluorescence images were acquired immediately after 3 h incubation using confocal microscope. The LDL uptake was quantified using ImageJ by analyzing the area fraction of uptake LDL particles out of the total cellular area.
# [8] = Tissue distribution of avasimibe by LC-MS, 2 hr post administration; assay type: in vivo, PC3 tumor xenograft nude mice; conditions: oral avasimibe 15 mg/kg
# Method: To measure the bioavailability of avasimibe in tissues, avasimin solution in PBS (75 mg/kg, containing 15 mg/kg avasimibe) was intravenously administered to PC3 tumor xenograft nude mice (n=3) through the tail vein. avasimibe solution in PBS (15 mg/kg) was also orally administered to PC3 tumor xenograft nude mice (n=3). At 2 hr-post injection, the mice were sacrificed, and the tissues and urine were harvested and weighed. After adding PBS (100 μl per […] tissue), the tissues were homogenized using a bead based homogenizer (Precellys®24, bertin technologies). Avasimibe was extracted from the homogenized tissue solution according to the same procedure used in avasimibe extraction from blood sample. Avasimibe in the tissue, urine, and feces specimens was quantified by LC-MS using the same conditions as the blood-bioavailability study. The amounts of avasimibe were quantitatively determined based on the calibration curve of avasimibe in blood.
# [9] = tested on: cancer cells (PC3, MIA-PaCa2, A549, HCT116) and normal cells (hVSMC, BR5); assay: Cell viability of cancer and normal cells; assay type: cell-based, human; conditions: conventional chemotherapeutics, comparison
# [10] = 15 mg/kg per day intraperitoneally, 4 weeks
smiles,measurement,setting,value
CC(C)c1cc(C(C)C)c(CC(=O)NS(=O)(=O)Oc2c(C(C)C)cccc2C(C)C)c(C(C)C)c1 [avasimibe],CE level in pancreatic cancer cells,pancreatic cancer cells [1],effectively removed CE
same,effect in combination with gemcitabine,tumors,synergistic effect
same,number of apoptotic cells,MIA PaCa-2 cells,largely increased
same,proliferation rate of PANC-1 cells,PANC-1; 10 μM,significantly reduced the proliferation rate
same,pIC50,"PANC-1; Homo sapiens, PANC-1",4.63
same,ATF4 level,[2],increase of transcription factor ATF4 within 12 hours
same,CHOP expression,[2],appeared after 12 hour treatment and increased from 12 to 48 hour
same,GRP78 expression level,[2],gradually increased over time
same,pIC50,PC3 cells,4.77
same,pIC50,HPDE6,4.28
same,free cholesterol levels in cells,pancreatic cancer cells [3],gradually increased
same,CE amount in tumor (SRS imaging and Raman),[4]; 15 mg/kg per day intraperitoneally,Reduction of CE amount
same,body weight,[4]; [10],did not induce body weight loss
same,metastatic lesions in lymph nodes and distant organs,[4]; [10],largely suppressed
same,"tumor size, tumor growth rate, tumor volume and weight",[4]; [10],significantly suppressed
same,apoptotic cells in tumor tissues (TUNEL),"[4]; mouse, in vivo",Increased apoptotic cells
same,free cholesterol in mouse pancreatic tumor tissues,"[4]; mouse, in vivo",Increased free cholesterol
same,cell invasion rate,"MIA PaCa-2 cell; transwell with Matrigel, 24 h",significantly reduced
same,cell migration rate,"MIA PaCa-2 cell; transwell, 12 h",significantly reduced
same,replacement of warfarin at the primary binding site of HSA,"[5]; avasimibe:HSA 16:1, warfarin:HSA 10:1",complete replacement of warfarin
same,"binding affinity to HSA, compared with warfarin",[5]; inferred from complete replacement of warfarin,> 189000 M⁻¹
same,proliferation rate of MIA PaCa-2 cells,MIA PaCa-2; 10 μM,significantly reduced the proliferation rate
same,pIC50,"MIA PaCa-2; Homo sapiens, MIA PaCa-2",4.96
same,AUC,[6],3250 ng·h/mL
same,uptake of DiI labeled LDL,pancreatic cancer cells [7],significantly reduced uptake of LDL
same,excretion of avasimibe through feces,[8],considerable amount of avasimibe was excreted through the feces
same,avasimibe in the tumor tissue,[8]; 2 hr,not detectable
same,main tissue of avasimibe distribution,[8]; 2 hr,most avasimibe was found in the liver tissue
Nc1ccn([C@@H]2O[C@H](CO)[C@@H](O)C2(F)F)c(=O)n1 [gemcitabine],selectivity of cytotoxic effect,[9],non-selective cytotoxic effects
